Legend:
[1] = system: protein disulfides in the mouse lenses; assay: Decrease in disulfide bonds: protein SH / SS groups in lens homogenates by differential fluorescent alkylation; assay type: cell-based
Method: FIG. 5 depicts a scattergram of the percent of the total protein SH groups in disulfide bonds. Free SH groups were alkylated with 4-acctamido-4′-maleimidylstilbcne-2,2′-sulfonic acid (c, 1 μM, 5 μM, 9.6 μM, 50 μM, 96 μM) or 7-diethylamino-3-(4′maleimidylphenyl)-4-methyl coumarin (500 μM, and 500 μM c). Following removal of the first alkylating agent, the S—S bonds were reduced and alkylated with fluorescein-5-maleimide. Absorption spectra were used to calculated total protein (A280 nm), free protein SH (A322 or A384), and protein SS (A490) using the appropriate extinction coefficients. The symbol $ indicates statistically significant difference of mean with mean of control (c, p≤0.05).
Mouse lenses were homogenized in a denaturing buffer containing a fluorescent alkylating agent to modify the free SH groups. After removing the alkylating agent homogenates were reduced and alkylated with a different fluorescent alkylating agent. Absorption spectra of the modified proteins were used to calculate free protein SH and protein SS groups.

mouse lenses = assay: Increase in elasticity: change in lens diameter (ΔD) under coverslip load in lens organ culture; assay type: cell-based; conditions: lipoic acid at concentrations ≥9.6 μM, 8-15 hours incubation, vs control; p<0.0001
Method: The relative change in Young's modulus (E) can be calculated as the cubic value derived from the ΔD of the control divided by the ΔD of the experimental or E fractional change=(ΔD con/ΔDexp)^3. Pairs of mouse lenses were incubated in medium 200 supplemented with an antibiotic, an antimycotic, in the presence or absence of lipoic acid (concentrations ranging from 0.5 μM to 500 μM) for 8-15 hours. Each lens was removed from medium, weighed, and photographed on a micrometer scale. A coverslip of known weight (0.17899±0.00200 g) was placed on the lens, and the lens was photographed again on the micrometer scale. The diameter of each lens with and without the coverslip was determined from the photographs. The change in lens diameter produced by the force (coverslip) was computed ΔD=(Dwithcoverslip−Dwithoutcoverslip).

[2] = cited from earlier work

O=C(O)CCCCC1CCSS1 (stereo not shown) [lipoic acid, 5-(1,2-dithiolan-3-yl)pentanoic acid]
percent of total protein SH groups in disulfide bonds, mean vs 500 μM control ([1]; 500 μM lipoic acid vs 500 μM control, p=0.027): significantly different
protein disulfides (percent of total protein SH groups in disulfide bonds) ([1]; lipoic acid at concentrations ≥9.6 μM, vs control, p≤0.05): statistically significant decrease
change in lens diameter produced by the force (coverslip), ΔD (mouse lenses): statistically significant increase

N[C@@H](CSSC[C@H](N)C(=O)O)C(=O)O [cystine, 3,3′-disulanedylbis(2-aminopropanoic acid)]
limit of solubility in aqueous solution [2]: 20 µM
